Earlier results on 1 sequence are cited in patent US12234263B2, “Influenza vaccines” (InvVax, Inc., priority 2016, dated 2025).

In the series the test system is CD8 T-cell. To be noted: BALB/C; worldwideweb.fludb.org.

On to TYQRTRALV [SEQ ID NO: 37], for which the “experimentally validated CD8 T-cell epitope” value is on record as “experimentally validated BALB/C influenza A virus CD8 T-cell epitope”.
